Assay results taken from patent US20240166669A1, “QUINAZOLINE AMINE DERIVATIVES AS KRAS INHIBITORS” (Nikang Therapeutics, Inc., priority 2021, published 2024).

biological target: T1, K-Ras G12D (Homo sapiens, UniProt P01116, G12D); assay: p-ERK Cellular 2-Plate Assay (Biological Example 2); format: cell-based; details: AGS cells (KRAS G12D), 3 h treatment, AlphaLISA p-ERK1/2, 2-plate; Biological Example 2 (unmarked values); read-out: AGS PERK EC50
T1 construct: AGS (Cobioer, CBP60476) cell lines which harbor KRAS G12D mutation; host or cells: AGS
Experimental: The ability of the compound of Formula (IIA′), (II′), or (II) or a pharmaceutically acceptable salt thereof (test compound) to inhibit K-Ras G12D activity was tested using AGS (Cobioer, CBP60476) cell lines which harbor KRAS G12D mutation as described below.
AGS (Cobioer, CBP60476) were seeded in 384-well plates and cultured overnight (10.000 cells per well 40 μl total volume). The following morning, cells were treated with test compound, with staring concentration at 10 μM and 3-fold dilution down to 0.5 nM for 3 h at 37° C., DMSO treatment served as control. p-ERK was then measured using AlphaLISA SureFire Ultra p-ERK1/2 (Thr202/Tyr204) Assay Kit (Perkin Elmer, cat #ALSU-PERK) following the manufacturer's instruction as follows.
Briefly, the culture medium was removed and 20 μl 1× lysis buffer was added to each well, followed by 30 minutes incubation on a plate shaker at room temperature. Then 10 μl of lysate was transferred to a white 384-well plate. Acceptor mixture was prepared according to manufacturer's instruction. 5 μl acceptor mixture was added to the cell lysate and the plate was wrapped with foil, spun at 500 rpm for 10 s, and incubated at RT for 60 min. Donor mixture was prepared under subdued light. 5 μl donor mixture was added to the cell lysate and the plate was spun at 500 rpm for 10s and incubated at RT for another 60 min. in the dark. Signal was then measured on a EnVision 2105 multimode plate reader. Percentage inhibition was calculated with DMSO treatment as 100% of signal, and IC50 was calculated by XLfit 5.5.x.

T1 sequence (P01116 1-188 isoform P01116-2 G12D): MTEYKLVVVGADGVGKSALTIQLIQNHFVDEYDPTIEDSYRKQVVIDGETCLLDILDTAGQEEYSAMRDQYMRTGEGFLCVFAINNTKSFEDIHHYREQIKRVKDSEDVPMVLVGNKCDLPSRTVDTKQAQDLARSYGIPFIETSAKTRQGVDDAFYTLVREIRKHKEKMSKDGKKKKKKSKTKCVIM

Compound	EC50 [nM]
C#Cc1c(F)ccc2cccc(-c3ncc4c(N5CC6CCC(C5)N6)nc(OCC56CCCN5Cc5ccccc56)nc4c3F)c12 (stereo not drawn) [Example 12, 9b-(((4-(3,8-diazabicyclo[3.2.1]octan-3-yl)-7-(8-ethynyl-7-fluoronaphthalen-1-yl)-8-fluoropyrido[4,3-d]pyrimidin-2-yl)oxy)methyl)-2,3,5,9b-tetrahydro-1H-pyrrolo[2,1-a]isoindole]	105
C#Cc1c(F)ccc2cccc(-c3c(Cl)cc4c(N5C[C@H]6CC[C@@H](C5)N6)nc(OCC56CCCN5CC(=C)C6)nc4c3F)c12 (stereo partly drawn) [Example 55, 4-((1R,5S)-3,8-diazabicyclo[3.2.1]octan-3-yl)-6-chloro-7-(8-ethynyl-7-fluoronaphthalen-1-yl)-8-fluoro-2-((2-methylenetetrahydro-1H-pyrrolizin-7a(5H)-yl)methoxy)quinazoline]	> 100
C#Cc1cccc2cc(O)cc(-c3ncc4c(N5C[C@H]6CC[C@@H](C5)N6)nc(OCC56CCCN5Cc5ccccc56)nc4c3F)c12 (stereo partly drawn) [Example 6, 4-(4-((1R,5S)-3,8-diazabicyclo[3.2.1]octan-3-yl)-2-((2,3-dihydro-1H-pyrrolo[2,1-a]-isoindol-9b(5H)-yl)methoxy)-8-fluoropyrido[4,3-d]pyrimidin-7-yl)-5-ethynylnaphthalen-2-ol]	0.6
C#Cc1cccc2cc(O)cc(-c3ncc4c(N5C[C@H]6CC[C@@H](C5)N6)nc(OCC56CCCN5Cc5c(C(F)(F)F)cccc56)nc4c3F)c12 (stereo partly drawn) [Example 34, 4-(4-((1R,5S)-3,8-diazabicyclo[3.2.1]octan-3-yl)-8-fluoro-2-((6-(trifluoromethyl)-2,3-dihydro-1H-pyrrolo[2,1-a]isoindol-9b(5H)-yl)methoxy)pyrido-[4,3-d]pyrimidin-7-yl)-5-ethynylnaphthalen-2-ol]	25
C#Cc1cccc2cc(O)cc(-c3ncc4c(N5CC6CCC(C5)N6)nc(OCC56CCCN5Cc5cnccc56)nc4c3F)c12 (stereo not drawn) [Example 31, 4-(4-(3,8-diazabicyclo[3.2.1]octan-3-yl)-2-((6,7-dihydro-5H-pyrido[4,3-a]pyrrolizin-4b(9H)-yl)methoxy)-8-fluoropyrido[4,3-d]pyrimidin-7-yl)-5-ethynylnaphthalen-2-ol]	4.1
C#Cc1cccc2cc(O)cc(-c3ncc4c(N5CC6CCC(C5)N6)nc(OCC56CCCN5Cc5cc(F)ccc56)nc4c3F)c12 (stereo not drawn) [Example 25, 4-(4-(3,8-diazabicyclo[3.2.1]octan-3-yl)-8-fluoro-2-((7-fluoro-2,3-dihydro-1H-pyrrolo[2,1-a]isoindol-9b(5H)-yl)-methoxy)pyrido[4,3-d]pyrimidin-7-yl)-5-ethynylnaphthalen-2-ol]	3
C#Cc1cccc2cc(O)cc(-c3ncc4c(N5CC6C=C(C#N)C(C5)N6)nc(OCC56CCCN5CCC6)nc4c3F)c12 (stereo not drawn) [Example 7, 3-(7-(8-ethynyl-3-hydroxynaphthalen-1-yl)-8-fluoro-2-((tetrahydro-1H-pyrrolizin-7a(5H)-yl)methoxy)pyrido[4,3-d]pyrimidin-4-yl)-3,8-diazabicyclo[3.2.1]oct-6-ene-6-carbonitrile]	260
C#Cc1c(F)ccc2cccc(-c3ncc4c(N5C[C@H]6CC[C@@H](C5)N6)nc(OCC56CCCN5CC(=CC)C6)nc4c3F)c12 (stereo partly drawn) [Example 48, 4-((1R,5S)-3,8-diazabicyclo[3.2.1]octan-3-yl)-2-((2-ethylidenetetrahydro-1H-pyrrolizin-7a(5H)-yl)methoxy)-7-(8-ethynyl-7-fluoronaphthalen-1-yl)-8-fluoropyrido[4,3-d]pyrimidine]	33
C#Cc1cccc2cc(O)cc(-c3ncc4c(N5CC6CCC(C5)N6)nc(OCC56CCCN5Cc5ccncc56)nc4c3F)c12 (stereo not drawn) [Example 32, 4-(4-(3,8-diazabicyclo[3.2.1]octan-3-yl)-2-((8,9-dihydro-5H-pyrido[3,4-a]pyrrolizin-9a(7H)-yl)methoxy)-8-fluoropyrido[4,3-d]pyrimidin-7-yl)-5-ethynylnaphthalen-2-ol]	6
C#Cc1cccc2cc(O)cc(-c3ncc4c(N5C[C@H]6CC[C@@H](C5)N6)nc(OCC56CCCN5Cc5c(OC)cccc56)nc4c3F)c12 (stereo partly drawn) [Example 29, 4-(4-((1R,5S)-3,8-diazabicyclo-[3.2.1]octan-3-yl)-8-fluoro-2-((6-methoxy-2,3-dihydro-1H-pyrrolo[2,1-a]-isoindol-9b(5H)-yl)methoxy)-pyrido[4,3-d]-pyrimidin-7-yl)-5-ethynylnaphthalen-2-ol]	2
C#Cc1cccc2cc(O)cc(-c3ncc4c(N5C[C@H]6CC[C@@H](C5)N6)nc(OCC56CCCN5Cc5cc(OC)ccc56)nc4c3F)c12 (stereo partly drawn) [Example 30, 4-(4-((1R,5S)-3,8-diazabicyclo-[3.2.1]octan-3-yl)-8-fluoro-2-((7-methoxy-2,3-dihydro-1H-pyrrolo[2,1-a]isoindol-9b(5H)-yl)methoxy)-pyrido[4,3-d]-pyrimidin-7-yl)-5-ethynylnaphthalen-2-ol]	4
C#Cc1cccc2cc(O)cc(-c3ncc4c(N5CC6CCC(C5)N6)nc(OCC56CCCN5Cc5ccc(F)cc56)nc4c3F)c12 (stereo not drawn) [Example 26, 4-(4-(3,8-diazabicyclo[3.2.1]octan-3-yl)-8-fluoro-2-((8-fluoro-2,3-dihydro-1H-pyrrolo[2,1-a]isoindol-9b(5H)-yl)-methoxy)pyrido[4,3-d]pyrimidin-7-yl)-5-ethynylnaphthalen-2-ol]	7
C#Cc1cccc2cc(O)cc(-c3ncc4c(N5CC6CCC(C5)N6)nc(OCC56CCCN5Cc5c(F)cccc56)nc4c3F)c12 (stereo not drawn) [Example 24, 4-(4-(3,8-diazabicyclo[3.2.1]octan-3-yl)-8-fluoro-2-((6-fluoro-2,3-dihydro-1H-pyrrolo[2,1-a]isoindol-9b(5H)-yl)-methoxy)pyrido[4,3-d]pyrimidin-7-yl)-5-ethynylnaphthalen-2-ol]	3.7

Other lines, results leading:

EC50 [nM]	Compound
0.1	C#Cc1cccc2cc(O)cc(-c3ncc4c(N5CC6CCC(C5)N6)nc(OCC56CCCN5CC(=CC)C6)nc4c3F)c12 (stereo not drawn) [Example 15]
266	C#Cc1cccc2cc(O)cc(-c3ncc4c(N5CC6CC7(CC7)C(C5)N6)nc(OCC56CCCN5CCC6)nc4c3F)c12 (stereo not drawn) [Example 53, 5-ethynyl-4-(8-fluoro-4-(3,8-diazaspiro[bicyclo[3.2.1]octane-6,1′-cyclopropan]-3-yl)-2-((tetrahydro-1H-pyrrolizin-7a(5H)-yl)methoxy)pyrido[4,3-d]pyrimidin-7-yl)naphthalen-2-ol]
5.2	C#Cc1cccc2cc(O)cc(-c3ncc4c(N5C[C@H]6CC[C@@H](C5)N6)nc(OCC56CCCN5Cc5c6cnn5C)nc4c3F)c12 (stereo partly drawn) [Example 36, 4-(4-((1R,5S)-3,8-diazabicyclo[3.2.1]octan-3-yl)-8-fluoro-2-((1-methyl-1,5,6,8-tetrahydropyrazolo[4,3-a]pyrrolizin-3b(4H)-yl)methoxy)pyrido[4,3-d]pyrimidin-7-yl)-5-ethynylnaphthalen-2-ol]
0.2	C#Cc1cccc2cc(O)cc(-c3ncc4c(N5C[C@H]6CC[C@@H](C5)N6)nc(OCC56CCCN5CC(=CF)C6)nc4c3F)c12 (stereo partly drawn) [Example 2, 4-(4-((1R,5S)-3,8-diazabicyclo[3.2.1]octan-3-yl)-8-fluoro-2-((2-(fluoro-methylene)tetrahydro-1H-pyrrolizin-7a(5H)-yl)methoxy)pyrido[4,3-d]pyrimidin-7-yl)-5-ethynylnaphthalen-2-ol]
0.48	C#Cc1cccc2cc(O)cc(-c3ncc4c(N5CC6CCC(C5)N6)nc(OC[C@@]56CCCN5[C@@H]5CCOCC5C6)nc4c3F)c12 (mixture of isomers) [Example 23]
